Results on five compounds are retold here after ChEMBL document CHEMBL1914287, “Synthesis and in vivo evaluation of [18F]N-(2-benzofuranylmethyl)-N'-[4-(2-fluoroethoxy)benzyl]piperazine, a novel σ1 receptor PET imaging agent” (Bioorg Med Chem Lett, 2011).

In series [1] the test system is Rhesus monkey. Briefly: Inhibition of sigma 2 receptor in conscious monkey brain at 220 to 802 MBq, iv. Type of series: functional, organism-based. The following applies: Macaca mulatta.
The test system of series [2] is Rhesus monkey. Briefly: Inhibition of sigma 1 receptor in conscious monkey brain at 220 to 802 MBq, iv. Type of series: functional, organism-based. The settings on record: Macaca mulatta.
The nature of series [3]: Binding affinity to sigma 2 receptor.
Series [4] addresses T1, Sigma non-opioid intracellular receptor 1 (Homo sapiens, UniProt Q99720). Briefly: Binding affinity to sigma 1 receptor.
Series [5] is described as follows: Drug uptake in thalamus of baboon brain at 100 MBq, iv administered 5 mins after haloperidol challenge measured within 5 mins by microPET imaging. The following applies: papio hamadryas, in vivo. Type of series: ADME, organism-based.
Series [6] is described as follows: Drug uptake in left striatum of baboon brain at 100 MBq, iv administered 5 mins after haloperidol challenge measured after 60 mins by microPET imaging. The following applies: papio hamadryas, in vivo, 1 h. Type of series: ADME, organism-based.
The nature of series [7]: Drug uptake in cerebellum of baboon brain at 100 MBq, iv administered 5 mins after haloperidol challenge measured within 3 mins by microPET imaging. The settings on record: papio hamadryas, in vivo. Type of series: ADME, organism-based.
Series [8] in a line: Drug uptake in right striatum of baboon brain at 100 MBq, iv measured within 5 mins by microPET imaging. Type of series: ADME, organism-based. The following applies: papio hamadryas, in vivo.
A short description of series [9]: Drug uptake in cerebellum of baboon brain at 100 MBq, iv measured after 60 mins by microPET imaging. The settings on record: papio hamadryas, in vivo, 1 h. Type of series: ADME, organism-based.
A short description of series [10]: Drug uptake in cerebellum of baboon brain at 100 MBq, iv administered 5 mins after haloperidol challenge measured after 60 mins by microPET imaging. Type of series: ADME, organism-based. The settings on record: papio hamadryas, in vivo, 1 h.
Series [11] is described as follows: Drug uptake in right striatum of baboon brain at 100 MBq, iv measured after 60 mins by microPET imaging. Type of series: ADME, organism-based. The settings on record: papio hamadryas, in vivo, 1 h.
Series [12] in a line: Drug uptake in left striatum of baboon brain at 100 MBq, iv administered 5 mins after haloperidol challenge measured within 5 mins by microPET imaging. Type of series: ADME, organism-based. The following applies: papio hamadryas, in vivo.
Series [13] can be described thus: Drug uptake in left striatum of baboon brain at 100 MBq, iv administered 5 mins after haloperidol challenge measured within 3 mins by microPET imaging. Type of series: ADME, organism-based. The following applies: papio hamadryas, in vivo.
A short description of series [14]: Drug uptake in cerebellum of baboon brain at 100 MBq, iv administered 5 mins after haloperidol challenge measured within 5 mins by microPET imaging. Type of series: ADME, organism-based. The following applies: papio hamadryas, in vivo.
Series [15] in a line: Drug uptake in right striatum of baboon brain at 100 MBq, iv administered 5 mins after haloperidol challenge measured within 3 mins by microPET imaging. Type of series: ADME, organism-based. The following applies: papio hamadryas, in vivo.
A short description of series [16]: Drug uptake in cortex of baboon brain at 100 MBq, iv administered 5 mins after haloperidol challenge measured within 5 mins by microPET imaging. Type of series: ADME, organism-based. The settings on record: papio hamadryas, in vivo.
Series [17] is described as follows: Drug uptake in cerebellum of baboon brain at 100 MBq, iv measured within 5 mins by microPET imaging. The settings on record: papio hamadryas, in vivo. Type of series: ADME, organism-based.
A short description of series [18]: Drug uptake in right striatum of baboon brain at 100 MBq, iv administered 5 mins after haloperidol challenge measured after 60 mins by microPET imaging. The settings on record: papio hamadryas, in vivo, 1 h. Type of series: ADME, organism-based.
The nature of series [19]: Drug uptake in right striatum of baboon brain at 100 MBq, iv administered 5 mins after haloperidol challenge measured within 5 mins by microPET imaging. Type of series: ADME, organism-based. The following applies: papio hamadryas, in vivo.
A short description of series [20]: Drug uptake in left striatum of baboon brain at 100 MBq, iv measured after 60 mins by microPET imaging. Type of series: ADME, organism-based. The following applies: papio hamadryas, in vivo, 1 h.
The nature of series [21]: Drug uptake in thalamus of baboon brain at 100 MBq, iv measured after 60 mins by microPET imaging. Type of series: ADME, organism-based. The settings on record: papio hamadryas, in vivo, 1 h.
The nature of series [22]: Drug uptake in thalamus of baboon brain at 100 MBq, iv measured within 5 mins by microPET imaging. Type of series: ADME, organism-based. The following applies: papio hamadryas, in vivo.
Series [23] in a line: Drug uptake in cortex of baboon brain at 100 MBq, iv measured after 60 mins by microPET imaging. Type of series: ADME, organism-based. The following applies: papio hamadryas, in vivo, 1 h.
Series [24] can be described thus: Drug uptake in thalamus of baboon brain at 100 MBq, iv administered 5 mins after haloperidol challenge measured within 3 mins by microPET imaging. Type of series: ADME, organism-based. The following applies: papio hamadryas, in vivo.
Series [25] in a line: Drug uptake in cortex of baboon brain at 100 MBq, iv administered 5 mins after haloperidol challenge measured within 3 mins by microPET imaging. Type of series: ADME, organism-based. The following applies: papio hamadryas, in vivo.
The nature of series [26]: Drug uptake in cortex of baboon brain at 100 MBq, iv measured within 5 mins by microPET imaging. Type of series: ADME, organism-based. The following applies: papio hamadryas, in vivo.
Series [27] in a line: Drug uptake in cortex of baboon brain at 100 MBq, iv administered 5 mins after haloperidol challenge measured after 60 mins by microPET imaging. Type of series: ADME, organism-based. The following applies: papio hamadryas, in vivo, 1 h.
Series [28] in a line: Drug uptake in thalamus of baboon brain at 100 MBq, iv administered 5 mins after haloperidol challenge measured after 60 mins by microPET imaging. Type of series: ADME, organism-based. The settings on record: papio hamadryas, in vivo, 1 h.
A short description of series [29]: Drug uptake in left striatum of baboon brain at 100 MBq, iv measured within 5 mins by microPET imaging. Type of series: ADME, organism-based. The settings on record: papio hamadryas, in vivo.
For series [30], the target named is Sigma non-opioid intracellular receptor 1 (Cavia porcellus, UniProt Q60492). Briefly: Binding affinity to sigma 1 receptor in guinea pig brain membrane. Type of series: cell membranes.
Series [31] in a line: Binding affinity to sigma 2 receptor in guinea pig brain membrane. Type of series: cell membranes, Cavia porcellus.
The target in series [32] is T1, Sigma non-opioid intracellular receptor 1. The series can be described thus: Binding affinity to sigma 1 receptor by radioligand displacement assay.
Series [33] in a line: Binding affinity to sigma 2 receptor by radioligand displacement assay.

Each structure is given as a SMILES string.

T1 sequence (Q99720 whole entry): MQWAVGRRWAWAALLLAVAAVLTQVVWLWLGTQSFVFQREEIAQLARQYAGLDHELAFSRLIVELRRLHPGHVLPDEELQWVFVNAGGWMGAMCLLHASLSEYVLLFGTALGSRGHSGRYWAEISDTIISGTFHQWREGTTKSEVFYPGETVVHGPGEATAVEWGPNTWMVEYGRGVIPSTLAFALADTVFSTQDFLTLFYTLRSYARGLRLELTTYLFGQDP
Sequence of Sigma non-opioid intracellular receptor 1 (Cavia porcellus, UniProt Q60492) (Q60492 whole entry): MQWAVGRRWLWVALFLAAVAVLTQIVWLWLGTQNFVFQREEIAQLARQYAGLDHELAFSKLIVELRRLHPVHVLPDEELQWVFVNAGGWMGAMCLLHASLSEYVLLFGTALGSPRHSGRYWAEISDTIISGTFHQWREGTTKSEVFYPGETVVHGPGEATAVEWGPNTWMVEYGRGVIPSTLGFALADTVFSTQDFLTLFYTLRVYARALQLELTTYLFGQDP

Consider `COc1cc(CCN2CCN(CCCc3ccc(F)cc3)CC2)ccc1OCCF`, for which the IC50 in the series with Rhesus monkey [1] was found to be 6.8 nM; in the series with Rhesus monkey [2], 3.1 nM.
With `N#Cc1ccc(OCC2CCN(CCCF)CC2)cc1`, the Ki in series [3] amounted to 144 nM; in [4], 4.3 nM.
With `[18F]CCOc1ccc(CN2CCN(Cc3cc4ccccc4o3)CC2)cc1`, the Drug uptake result in series [5] is given as “Not Active”; in series [6], “Not Active”; in series [7], “Active”; in [8], “Active”; in series [9], “Active”; in series [10], “Not Active”. Also, the Drug uptake entry is recorded as “Active” in [11]; “Not Active” in series [12]; “Active” in [13]; “Not Active” in series [14]; “Active” in series [15]; “Not Active” in series [16]. Moreover, the Drug uptake result is listed as “Active” in [17]; “Not Active” in series [18]; “Not Active” in series [19]; “Active” in series [20]; “Active” in [21]; “Active” in [22]. The Drug uptake entry in [23] is given as “Active”; in [24], “Active”; in [25] it was “Active”; in series [26], “Active”; in series [27], “Not Active”; in series [28], “Not Active”. Further, in [29], the Drug uptake result was “Active”.
Regarding `O=C(NC1CCN(Cc2ccccc2)CC1)c1ccccc1F`, the Ki is 3.39 nM in series [30] and 406 nM in series [31].
In the case of `FCCC1OC2(CCN(Cc3ccccc3)CC2)c2ccccc21` (stereo not drawn), the Ki in series [32] came to 0.59 nM; in [33] it was 785 nM.
